Assay results reported in the NIST ThermoML archive (doi:10.1021/acs.jced.9b00246).

Assay: an = ratio of the nth substance listed
Details: 101.3 kPa, Liquid; for viscosity: Concentric cylinders viscometry; for mass density: Vibrating tube method

CCN.Cl [ethylammonium chloride] + NC(N)=O
Details	mass density, 313.2 K [kg/m3]	mass density, 323.2 K [kg/m3]	mass density, 333.2 K [kg/m3]	mass density, 343.2 K [kg/m3]	mass density, 353.2 K [kg/m3]	viscosity, 313.2 K [mPa·s]	viscosity, 323.2 K [mPa·s]	viscosity, 333.2 K [mPa·s]	viscosity, 343.2 K [mPa·s]	viscosity, 353.2 K [mPa·s]
a2 = 0.5	1103.2	1098.1	1093.11	1088.05	1083.06	97.8	69.6	50.8	40.9	34.8
a2 = 1	1141.67	1135.99	1130.4	1124.89	1119.43	197.7	110.1	68.3	47.6	34.8
a2 = 1.94	1178.75	1172.79	1166.88	1160.96	1155.08	105.5	67.5	49.2	37.5	28.7
